The assay addresses glucose/galactose binding protein (GGBP) (Escherichia coli, UniProt P0AEE5). The experiment in a line: […] galactose competition binding assay.

We go through one compound from article PMC2742562 (ACS chemical biology, 2009).

Each structure is given as a SMILES string.

glucose/galactose binding protein (GGBP), sequence (P0AEE5 24-332 limits assumed): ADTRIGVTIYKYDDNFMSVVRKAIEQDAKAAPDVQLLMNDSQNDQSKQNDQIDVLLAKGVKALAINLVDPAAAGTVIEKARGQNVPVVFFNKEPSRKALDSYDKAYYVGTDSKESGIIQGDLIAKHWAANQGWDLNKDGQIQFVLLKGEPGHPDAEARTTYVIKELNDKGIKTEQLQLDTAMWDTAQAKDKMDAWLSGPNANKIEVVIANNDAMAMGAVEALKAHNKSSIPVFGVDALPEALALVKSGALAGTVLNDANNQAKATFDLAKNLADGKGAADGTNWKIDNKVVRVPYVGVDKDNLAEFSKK

Consider `OC[C@H]1O[C@@H](OCCO[C@H]2[C@H](O)[C@@H](CO)OC(O)[C@@H]2O)[C@H](O)[C@@H](O)[C@@H]1O` (stereo partly drawn) [DWI, 3-O-(2'-beta-D-glucopyanosyloxyethyl)-D-glucose], for which affinity was put at a Ki of 27 ± 7 µM.
